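Where inhibition never reached the appropriate level, the endpoint shown equals the highest concentration tested. Otherwise, values were interpolated linearly from a five-concentration, 48-hour dose response in 96-well plates. At the GI50, growth is halved.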 Activity calls are given as the source filed them. No stated cut-off is given here; in the data, active = GI50 up to about 1.1 µM and inactive = higher.
What was measured:
Test in all cases: NCI tumour cell line growth inhibition, 48 h
[1] = system: BT-549
[2] = system: CAKI-1
[3] = system: COLO 205
[4] = system: DU-145
[5] = system: EKVX
[6] = system: HCC 2998
[7] = system: HOP-62
[8] = system: Hs-578T
[9] = system: KM12
[10] = system: LOX IMVI
[11] = system: MDA-MB-435
[12] = system: NCI-H226
[13] = system: OVCAR-8
[14] = system: PC-3
[15] = system: SF-295
[16] = system: SF-539
[17] = system: SK-OV-3
[18] = system: SW-620
[19] = system: U-251
[20] = system: HL-60

Measured: GI50

O=C(O)CSc1nnc2c3ccccc3c3ccccc3c2n1
inactive: [1] > 100 µM | [2] > 100 µM | [3] > 100 µM | [4] 57.9 µM | [5] 63 µM | [6] 52.6 µM | [7] 46 µM | [8] 70.6 µM | [9] 42 µM | [10] 41.6 µM | [11] 52 µM | [12] 85.7 µM | [13] 50.4 µM | [14] 50.2 µM | [15] 41.8 µM | [16] 52.2 µM | [17] 71 µM | [18] 42.7 µM | [19] 46.8 µM

Fc1cc(-c2ncc(Cl)cc2Cl)c2cccccc1-2
inactive: [1] > 100 µM | [2] > 100 µM | [3] > 100 µM | [4] > 100 µM | [5] > 100 µM | [6] > 100 µM | [7] > 100 µM | [8] > 100 µM | [9] > 100 µM | [10] > 100 µM | [12] > 100 µM | [13] > 100 µM | [14] > 100 µM | [15] > 100 µM | [16] > 100 µM | [17] > 100 µM

CCCN(CCC)C1CCc2c(ccc3cc[nH]c23)C1 (stereo not drawn)
inactive: [1] > 100 µM | [2] > 100 µM | [3] 29.8 µM | [4] > 100 µM | [5] > 100 µM | [6] 23 µM | [7] > 100 µM | [8] > 100 µM | [9] 60.4 µM | [11] 89.3 µM | [12] > 100 µM | [13] > 100 µM | [14] 35 µM | [15] > 100 µM | [16] > 100 µM | [17] > 100 µM | [18] > 100 µM | [19] > 100 µM

CCn1c(=O)c2c3ccc(OC(C)=O)cc3[nH]c2c2ccc(OC(C)=O)cc21
inactive: [1] 72.3 µM | [2] 61.5 µM | [3] 30.9 µM | [4] 18.5 µM | [6] 23.7 µM | [7] 58.1 µM | [8] 34.5 µM | [9] 34.7 µM | [11] 41 µM | [12] 24.8 µM | [13] 31.3 µM | [14] 26.9 µM | [15] 36.1 µM | [16] 39 µM | [17] 44.3 µM | [18] 30.7 µM | [19] 37.2 µM

COc1ccc(N2C(=O)C3c4[nH]c5ccc(F)cc5c4C4CCC(c5ccccc5)CC4C3C2=O)cc1 (stereo not drawn)
inactive: [1] 17.3 µM | [2] 19.8 µM | [3] 31.1 µM | [4] 66.2 µM | [5] 24.3 µM | [6] 39.9 µM | [7] 14.3 µM | [8] 10.8 µM | [9] 20.7 µM | [10] 36.8 µM | [11] 16.6 µM | [12] 54.8 µM | [13] 17.8 µM | [14] 14.2 µM | [15] 31 µM | [17] 22.5 µM | [18] 8.38 µM | [19] 9.98 µM

S=C1/C(=N/c2ccccc2)N(c2ccccc2)/C(=N\c2cccc[n+]2Cc2ccccc2)N1c1ccccc1
inactive: [1] 14.3 µM | [2] 18.9 µM | [3] 17.1 µM | [4] 28.1 µM | [5] 19.7 µM | [6] 13.9 µM | [7] 13 µM | [8] 33.9 µM | [9] 16.6 µM | [11] 10.6 µM | [12] 19.3 µM | [13] 17.9 µM | [14] 12.1 µM | [15] 13.4 µM | [16] 16.3 µM | [17] 21.7 µM | [18] 13.9 µM | [19] > 10 µM

COc1ccc2[nH]c3c(c2c1)CCc1c(OC)cccc1-3
inactive: [1] > 100 µM | [2] > 100 µM | [3] > 100 µM | [4] > 100 µM | [5] > 100 µM | [6] > 100 µM | [7] 53.8 µM | [8] 39.7 µM | [9] > 100 µM | [10] > 100 µM | [11] > 100 µM | [12] > 100 µM | [13] > 100 µM | [14] > 100 µM | [15] > 100 µM | [17] > 100 µM | [18] > 100 µM | [19] 28.8 µM

CNc1ncnc2c1cnn2COCC(O)CO (stereo not drawn)
inactive: [1] > 100 µM | [2] > 100 µM | [3] > 100 µM | [4] > 100 µM | [5] > 100 µM | [6] > 100 µM | [7] > 100 µM | [8] > 100 µM | [9] > 100 µM | [10] > 100 µM | [11] > 100 µM | [12] > 100 µM | [13] > 100 µM | [14] > 100 µM | [15] > 100 µM | [16] > 100 µM | [17] > 100 µM | [18] > 100 µM | [19] > 100 µM

Cc1cc(N(CCC#N)CCC#N)ccc1C(/N=N\c1ccc(C(=O)O)cc1)=N\NC(=O)c1cc(Cl)ccc1O
inactive: [1] 45.9 µM | [2] 46.6 µM | [3] > 100 µM | [4] 64 µM | [5] 33 µM | [6] > 100 µM | [7] 27 µM | [8] 19.7 µM | [9] 28.8 µM | [11] > 100 µM | [12] 18.7 µM | [13] 25.3 µM | [14] 61 µM | [15] 12.4 µM | [16] > 10 µM | [17] 28.2 µM | [19] 24.9 µM

CO/N=C(\C(=O)N(C)n1cnnc1)c1csc(NC(c2ccccc2)(c2ccccc2)c2ccccc2)n1
inactive: [1] > 10 µM | [2] > 10 µM | [3] > 10 µM | [4] > 10 µM | [5] > 10 µM | [6] > 10 µM | [20] > 10 µM | [7] > 10 µM | [8] > 10 µM | [9] > 10 µM | [10] > 10 µM | [12] > 10 µM | [13] > 10 µM | [14] > 10 µM | [15] > 10 µM | [16] > 10 µM | [17] > 10 µM | [18] > 10 µM | [19] > 10 µM

OC1(c2cc3ccccc3s2)CCCCC1
inactive: [1] 55.7 µM | [2] > 100 µM | [3] 19.9 µM | [4] 63.2 µM | [5] 33.6 µM | [6] 76 µM | [20] 37.7 µM | [7] > 100 µM | [8] 28.5 µM | [9] 41.3 µM | [10] 45.8 µM | [11] 46.8 µM | [12] 80.9 µM | [13] 42.6 µM | [15] 37.9 µM | [16] > 100 µM | [17] 66.4 µM | [18] 50.1 µM | [19] 49.5 µM
